Data on 13 molecules can be found in patent US10947252B2, “Inhibitors of KEAP1-Nrf2 protein-protein interaction” (Janssen Pharmaceutica NV, priority 2018, dated 2021).

For the first assay, the system named is Glo-Response ARE-luc2P HEK293 cell line. The assay is described as follows: ARE luciferase reporter cell-based assay.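 Further: luciferase signal tracks Nrf2 activation of the ARE once compounds disrupt KEAP1-Nrf2 binding, read with One-Glo reagent, DMSO serving as low control.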 As to conditions: 24 hours, average of results obtained. Background: In a reporter assay the amount or activity of a reporter protein is the signal.
In the case of `Cc1ccc([C@H](CC(=O)O)c2ccn3c(C(F)(F)F)nnc3c2C)cc1CN1C[C@@H]2COCCN2c2ncccc2S1(=O)=O` (relative stereo) [Example 276, (*S)-3-(3-(((*R)-5,5-Dioxido-7a,8,10,11-tetrahydro-[1,4]oxazino[3,4-d]pyrido[2,3-f][1,2,5]thiadiazepin-6(7H)-yl)methyl)-4-methylphenyl)-3-(8-methyl-3-(trifluoromethyl)-[1,2,4]triazolo[4,3-a]pyridin-7-yl)propanoic Acid], a half-maximal response (EC50) required 0.112 µM.
For `Cc1ccc([C@@H](CC(=O)O)c2ccn3c(C(F)(F)F)nnc3c2C)cc1CN1C[C@@H]2COCCN2c2ncccc2S1(=O)=O` (relative stereo) [Example 277, (*R)-3-(3-(((*R)-5,5-Dioxido-7a,8,10,11-tetrahydro-[1,4]oxazino[3,4-d]pyrido[2,3-f][1,2,5]thiadiazepin-6(7H)-yl)methyl)-4-methylphenyl)-3-(8-methyl-3-(trifluoromethyl)-[1,2,4]triazolo[4,3-a]pyridin-7-yl)propanoic Acid], a half-maximal effect (EC50) was put at 0.102 µM.

The same assay, now with this note: Homo sapiens, HEK293, 24 h, average of results obtained.
Take `CCn1nnc2c(C)c([C@H](CC(=O)O)c3ccc(C)c(CN4C[C@@H]5CCCN5c5ccccc5S4(=O)=O)c3)ccc21` (relative stereo) [Example 149, (*R)-3-[3-[(5,5-Dioxo-7a,8,9,10-tetrahydro-7H-pyrrolo[2,1-d][1,2,5]benzothiadiazepin-6-yl)methyl]-4-methyl-phenyl]-3-(1-ethyl-4-methyl-benzotriazol-5-yl)propanoic Acid]: the EC50 was 0.25 µM.
Still for that read-out and setting: the result for `Cc1ccc([C@H](CC(=O)O)c2ccn3c(C(F)(F)F)nnc3c2C)cc1CN1C[C@]2(C)CCCN2c2ncccc2S1(=O)=O` (relative stereo) [Example 186, (*S)-3-(4-Methyl-3-(((*S)-7a-methyl-5,5-dioxido-7a,8,9,10-tetrahydropyrido[2,3-f]pyrrolo[2,1-d][1,2,5]thiadiazepin-6(7H)-yl)methyl)phenyl)-3-(8-methyl-3-(trifluoromethyl)-[1,2,4]triazolo[4,3-a]pyridin-7-yl)propanoic Acid] reads 0.047 µM.
`Cc1ccc([C@H](CC(=O)O)c2ccn3c(C(F)(F)F)nnc3c2C)cc1CN1C[C@H]2CCCCN2c2ncc(Cl)cc2S1(=O)=O` (relative stereo) [Example 193, (*S)-3-(3-(((*R)-3-Chloro-5,5-dioxido-7,7a,8,9,10,11-hexahydro-6H-dipyrido[2,1-d:2′,3′-f][1,2,5]thiadiazepin-6-yl)methyl)-4-methylphenyl)-3-(8-methyl-3-(trifluoromethyl)-[1,2,4]triazolo[4,3-a]pyridin-7-yl)propanoic Acid] registered an EC50 of 0.0017 µM.
In the case of `CC[C@@H]1CN(Cc2cc([C@H](CC(=O)O)c3ccn4c(C(F)(F)F)nnc4c3C)ccc2C)S(=O)(=O)c2cc(C)cnc2O1` (relative stereo) [Example 194, (*S)-3-(3-(((*R)-4-Ethyl-8-methyl-1,1-dioxido-3,4-dihydro-2H-pyrido[2,3-b][1,4,5]oxathiazepin-2-yl)methyl)-4-methylphenyl)-3-(8-methyl-3-(trifluoromethyl)-[1,2,4]triazolo[4,3-a]pyridin-7-yl)propanoic Acid], it took 0.002 µM to reach a half-maximal effect (EC50).
`Cc1ccc([C@H](CC(=O)O)c2ccn3c(C(F)(F)F)nnc3c2C)cc1CN1C[C@@H]2CCCCN2c2ncc(C(F)(F)F)cc2S1(=O)=O` (relative stereo) [Example 198, (*S)-3-(3-(((*S)-5,5-Dioxido-3-(trifluoromethyl)-7,7a,8,9,10,11-hexahydro-6H-dipyrido[2,1-d:2′,3′-f][1,2,5]thiadiazepin-6-yl)methyl)-4-methylphenyl)-3-(8-methyl-3-(trifluoromethyl)-[1,2,4]triazolo[4,3-a]pyridin-7-yl)propanoic Acid] returned an EC50 of 0.0053 µM.
Molecule `Cc1ccc([C@H](CC(=O)O)c2ccn3c(C(F)(F)F)nnc3c2C)cc1CN1C[C@H]2CCCCN2c2ncc(C(F)(F)F)cc2S1(=O)=O` (relative stereo) [Example 199, (*S)-3-(3-(((*R)-5,5-Dioxido-3-(trifluoromethyl)-7,7a,8,9,10,11-hexahydro-6H-dipyrido[2,1-d:2′,3′-f][1,2,5]thiadiazepin-6-yl)methyl)-4-methylphenyl)-3-(8-methyl-3-(trifluoromethyl)-[1,2,4]triazolo[4,3-a]pyridin-7-yl)propanoic Acid] returned an EC50 of 0.0033 µM.
`Cc1ccc([C@H](CC(=O)O)c2ccn3c(C(F)(F)F)nnc3c2C)cc1CN1C[C@@H]2CCCCN2c2nc(C#N)ccc2S1(=O)=O` (relative stereo) [Example 202, (*S)-3-(3-(((*S)-2-Cyano-5,5-dioxido-7,7a,8,9,10,11-hexahydro-6H-dipyrido[2,1-d:2′,3′-f][1,2,5]thiadiazepin-6-yl)methyl)-4-methylphenyl)-3-(8-methyl-3-(trifluoromethyl)-[1,2,4]triazolo[4,3-a]pyridin-7-yl)propanoic Acid] showed an EC50 of 0.013 µM. This EC50 lies about 3.9-fold higher than the previous one.
`Cc1ccc([C@H](CC(=O)O)c2ccn3c(C(F)(F)F)nnc3c2C)cc1CN1C[C@@H]2CCCCN2c2nc(C(N)=O)ccc2S1(=O)=O` (relative stereo) [Example 203, (*S)-3-(3-(((*S)-2-Carbamoyl-5,5-dioxido-7,7a,8,9,10,11-hexahydro-6H-dipyrido[2,1-d:2′,3′-f][1,2,5]thiadiazepin-6-yl)methyl)-4-methylphenyl)-3-(8-methyl-3-(trifluoromethyl)-[1,2,4]triazolo[4,3-a]pyridin-7-yl)propanoic Acid] gave an EC50 of 0.15 µM.
`Cc1ccc([C@H](CC(=O)O)c2ccn3c(C(F)(F)F)nnc3c2C)cc1CN1C[C@H]2CCCCN2c2nc(C#N)ccc2S1(=O)=O` (relative stereo) [Example 204, (*S)-3-(3-(((*R)-2-Cyano-5,5-dioxido-7,7a,8,9,10,11-hexahydro-6H-dipyrido[2,1-d:2′,3′-f][1,2,5]thiadiazepin-6-yl)methyl)-4-methylphenyl)-3-(8-methyl-3-(trifluoromethyl)-[1,2,4]triazolo[4,3-a]pyridin-7-yl)propanoic Acid]: the midpoint of the response, the EC50, lay at 0.0059 µM.
In turn, `Cc1ccc([C@H](CC(=O)O)c2ccn3c(C(F)(F)F)nnc3c2C)cc1CN1C[C@@H]2CCCN2c2ncc(C#N)cc2S1(=O)=O` (relative stereo) [Example 206, (*S)-3-(3-(((S)-3-Cyano-5,5-dioxido-7a,8,9,10-tetrahydropyrido[2,3-f]pyrrolo[2,1-d][1,2,5]thiadiazepin-6(7H)-yl)methyl)-4-methylphenyl)-3-(8-methyl-3-(trifluoromethyl)-[1,2,4]triazolo[4,3-a]pyridin-7-yl)propanoic Acid] gave an EC50 of 0.014 µM.
On the same count and under the same terms, the result for `Cc1ccc([C@H](CC(=O)O)c2ccc3c(nnn3C3CC3)c2C)cc1CN1C[C@]2(C)CCCN2c2ncccc2S1(=O)=O` (relative stereo) [Example 219, (*S)-3-(1-Cyclopropyl-4-methyl-1H-benzo[d][1,2,3]triazol-5-yl)-3-(4-methyl-3-(((*S)-7a-methyl-5,5-dioxido-7a,8,9,10-tetrahydropyrido[2,3-f]pyrrolo[2,1-d][1,2,5]thiadiazepin-6(7H)-yl)methyl)phenyl)propanoic Acid] reads 0.0045 µM.

For orientation: EC50 means the concentration giving half of the maximal effect. Low values mean greater potency, high ones weaker potency.
